Patent publication US9790229B2, “Bruton's tyrosine kinase inhibitors” (priority 2009, dated 2017)
Read-outs that look alike come from different tables or passages of the source.

Target: BTK (Homo sapiens (Human), UniProt Q06187)
Test: In vitro BTK kinase assay: BTK-POLYGAT-LS ASSAY
[1] = read-out: IC50 (10 uM ATP), 10 uM ATP, in vitro Btk kinase assay, Example 41

Chain of BTK (Q06187 whole entry): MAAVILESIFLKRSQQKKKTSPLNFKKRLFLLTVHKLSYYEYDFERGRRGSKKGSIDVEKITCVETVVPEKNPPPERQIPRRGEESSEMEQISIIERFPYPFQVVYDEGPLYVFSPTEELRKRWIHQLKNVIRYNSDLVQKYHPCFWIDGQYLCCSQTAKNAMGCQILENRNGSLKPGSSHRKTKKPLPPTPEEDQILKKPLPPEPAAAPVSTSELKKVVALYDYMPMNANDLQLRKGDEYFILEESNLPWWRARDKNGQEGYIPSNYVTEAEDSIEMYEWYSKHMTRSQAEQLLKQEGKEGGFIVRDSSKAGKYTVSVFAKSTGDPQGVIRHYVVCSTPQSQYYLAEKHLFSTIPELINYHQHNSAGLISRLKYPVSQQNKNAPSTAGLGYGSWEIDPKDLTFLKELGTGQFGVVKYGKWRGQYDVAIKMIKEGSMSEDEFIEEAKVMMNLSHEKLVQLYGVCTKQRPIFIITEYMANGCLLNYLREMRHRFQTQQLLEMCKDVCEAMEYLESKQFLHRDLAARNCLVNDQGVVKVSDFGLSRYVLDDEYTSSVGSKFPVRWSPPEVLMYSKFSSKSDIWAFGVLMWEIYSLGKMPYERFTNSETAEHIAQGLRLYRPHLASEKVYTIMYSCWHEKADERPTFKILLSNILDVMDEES

SMILES	IC50 [1] [µM]	IC50 [µM]
Cc1cc(NC(=O)Nc2cccc(C3CCCN(c4ncnc5[nH]ccc45)C3)c2)c(C(F)(F)F)o1 (stereo not drawn) [compound 236]	> 10	–
O=C(Nc1ccccc1)N[C@H]1CCCN(C2CCCN(c3ncnc4[nH]ccc34)C2)C1 (stereo partly drawn) [compound 237]	> 10	–
Cc1cccc(Cl)c1NC(=O)Nc1cccc(C2CCCN(c3ncnc4[nH]ccc34)C2)c1 (stereo not drawn) [compound 238]	> 10	–
O=C(Nc1cccc(C2CCCN(c3ncnc4[nH]ccc34)C2)c1)NC1CCNC1 (stereo not drawn) [compound 239]	> 10	–
CC(=O)N1CCCC(CNC(=O)Nc2cccc(C3CCCN(c4ncnc5[nH]ccc45)C3)c2)C1 (stereo not drawn) [compound 240]	> 10	–
CC(C)NC(=O)Nc1cccc(C2CCCN(c3ncnc4[nH]ccc34)C2)c1 (stereo not drawn) [compound 241]	> 10	–
C[C@H](NC(=O)Nc1cccc(C2CCCN(c3ncnc4[nH]ccc34)C2)c1)C1CCCCC1 (stereo partly drawn) [compound 242]	> 10	–
O=C(Nc1cccc(C2CCCN(c3ncnc4[nH]ccc34)C2)c1)NC1CCNCC1 (stereo not drawn) [compound 243]	> 10	–
Cc1nn(C)c(C)c1NC(=O)Nc1cccc(C2CCCN(c3ncnc4[nH]ccc34)C2)c1 (stereo not drawn) [compound 244]	> 10	–
CN1CCC(CNC(=O)Nc2cccc(C3CCCN(c4ncnc5[nH]ccc45)C3)c2)CC1 (stereo not drawn) [compound 245]	> 10	–
CC(=O)N1CCC(CNC(=O)Nc2cccc(C3CCCN(c4ncnc5[nH]ccc45)C3)c2)CC1 (stereo not drawn) [compound 246]	> 10	–
O=C(NCC1CCS(=O)(=O)C1)Nc1cccc(C2CCCN(c3ncnc4[nH]ccc34)C2)c1 (stereo not drawn) [compound 247]	> 10	–
C[C@H](NC(=O)Nc1cccc(C2CCCN(c3ncnc4[nH]ccc34)C2)c1)c1ccccc1 (stereo partly drawn) [compound 248]	> 10	–
Cn1nccc1NC(=O)Nc1cccc(C2CCCN(c3ncnc4[nH]ccc34)C2)c1 (stereo not drawn) [compound 249]	> 10	–
CC(C)(C)NC(=O)Nc1cccc(C2CCCN(c3ncnc4[nH]ccc34)C2)c1 (stereo not drawn) [compound 250]	> 10	–
O=C(NCC1CCCCN1)Nc1cccc(C2CCCN(c3ncnc4[nH]ccc34)C2)c1 (stereo not drawn) [compound 252]	> 10	–
CCOC(=O)CCc1c(N)ncnc1N1CCCC(c2cccc(NC(=O)Nc3ccccc3)c2)C1 (stereo not drawn) [compound 253]	> 10	–
Cc1noc(C)c1NC(=O)Nc1cccc(C2CCCN(c3ncnc4[nH]ccc34)C2)c1 (stereo not drawn) [compound 254]	> 10	–
O=C(Nc1ccc(C2CCCC2)cc1)Nc1cccc(C2CCCN(c3ncnc4[nH]ccc34)C2)c1 (stereo not drawn) [compound 255]	> 10	–
O=C(Nc1ccccc1)N[C@H]1CCN(C2CCCN(c3ncnc4[nH]ccc34)C2)C1 (stereo partly drawn) [compound 256]	> 10	–
O=C(NCC1CCC(C(F)(F)F)CC1)Nc1cccc(C2CCCN(c3ncnc4[nH]ccc34)C2)c1 (stereo not drawn) [compound 257]	> 10	–
CC1(C)[C@@H]2CCC(CNC(=O)Nc3cccc(C4CCCN(c5ncnc6[nH]ccc56)C4)c3)[C@H]1C2 (stereo partly drawn) [compound 258]	> 10	–
O=C(NCCC1CCCCC1)Nc1cccc(C2CCCN(c3ncnc4[nH]ccc34)C2)c1 (stereo not drawn) [compound 259]	> 10	–
CC(C)(C#N)c1ccccc1NC(=O)Nc1cccc(C2CCCN(c3ncnc4[nH]ccc34)C2)c1 (stereo not drawn) [compound 260]	> 10	–
NC(=O)Cc1ccccc1NC(=O)Nc1cccc(C2CCCN(c3ncnc4[nH]ccc34)C2)c1 (stereo not drawn) [compound 261]	> 10	–
CNC(=O)Nc1cccc(C2CCCN(c3ncnc4[nH]ccc34)C2)c1 (stereo not drawn) [compound 262]	> 10	–
CC(C)(C)c1ccc(NC(=O)Nc2cccc(C3CCCN(c4ncnc5[nH]ccc45)C3)c2)cc1 (stereo not drawn) [compound 263]	> 10	–

SMILES	IC50 [1] [µM]	IC50 [µM]
CC(C)(C)c1cccc(NC(=O)Nc2cccc(C3CCCN(c4ncnc5[nH]ccc45)C3)c2)c1 (stereo not drawn) [compound 264]	> 10	–
COc1ccc(C2CCCN(c3ncnc4[nH]ccc34)C2)cc1NC(=O)Nc1ccccc1 (stereo not drawn) [compound 266]	> 10	–
O=C(Nc1ccccc1)Nc1cc(C2CCCN(c3ncnc4[nH]ccc34)C2)ccc1OC(F)(F)F (stereo not drawn) [compound 267]	> 10	–
O=C(Nc1ccccc1)Nc1ccc(C2CCCN(c3ncnc4[nH]ccc34)C2)cc1 (stereo not drawn) [compound 268]	> 10	–
N#C/N=C(\Nc1cccc(C2CCCN(c3ncnc4[nH]ccc34)C2)c1)Nc1c(Cl)cccc1Cl (stereo not drawn) [compound 269]	–	0.1 to 0.999
O=C1C(Nc2ccccc2)CCN1[C@@H]1CCCN(c2ncnc3[nH]ccc23)C1 (stereo partly drawn) [compound 270, 1-((R)-1-(7H-pyrrolo[2,3-d]pyrimidin-4-yl)piperidin-3-yl)-3-(phenylamino)pyrrolidin-2-one]	–	0.1 to 0.999
O=C1C(Nc2ccccc2)CCCN1[C@@H]1CCCN(c2ncnc3[nH]ccc23)C1 (stereo partly drawn) [compound 271, (3′R)-3-(phenylamino)-1′-(7H-pyrrolo[2,3-d]pyrimidin-4-yl)-1,3′-bipiperidin-2-one]	–	0.1 to 0.999
O=C1[C@@H](Nc2ccccc2)CCN1[C@@H]1CCCN(c2ncnc3[nH]ccc23)C1 [compound 272]	–	1 to 10
O=C1[C@H](Nc2ccccc2)CCN1[C@@H]1CCCN(c2ncnc3[nH]ccc23)C1 [compound 273]	–	0.1 to 0.999
O=C1C(Nc2ccccc2)c2ccccc2N1[C@@H]1CCCN(c2ncnc3[nH]ccc23)C1 (stereo partly drawn) [compound 274]	–	1 to 10
O=C1C(Nc2cc(Cl)cc(Cl)c2)CCCN1[C@@H]1CCCN(c2ncnc3[nH]ccc23)C1 (stereo partly drawn) [compound 276, (3′R)-3-(3,5-Dichloro-phenylamino)-1′-(7H-pyrrolo[2,3-d]pyrimidin-4-yl)-1,3′-bipiperidin-2-one]	< 0.1	–
Nc1ncnc(N2CCC[C@@H](N3CCCC(Nc4cc(F)cc(Cl)c4)C3=O)C2)c1F (stereo partly drawn) [compound 277, (3′R)-1′-(6-amino-5-fluoropyrimidin-4-yl)-3-(3-chloro-5-fluorophenylamino)-1,3′-bipiperidin-2-one]	< 0.1	–
Nc1ncnc(N2CCC[C@@H](N3CCCC(Nc4cc(Cl)cc(Cl)c4)C3=O)C2)c1F (stereo partly drawn) [compound 278, (3′R)-1′-(6-amino-5-fluoropyrimidin-4-yl)-3-(3,5-dichlorophenylamino)-1,3′-bipiperidin-2-one]	< 0.1	–
Nc1ncnc(N2C[C@@H](F)C[C@@H](N3CCCC(Nc4cc(F)cc(Cl)c4)C3=O)C2)c1F (stereo partly drawn) [compound 279, (3′R, 5′S)-1′-(6-Amino-5-fluoropyrimidin-4-yl)-3-(3-chloro-5-fluorophenylamino)-5′-fluoro-1,3′-bipiperidin-2-one]	< 0.1	–
Nc1ncnc(N2C[C@@H](F)C[C@@H](N3CCCC(Nc4cc(Cl)cc(Cl)c4)C3=O)C2)c1F (stereo partly drawn) [compound 280, (3′R,5′S)-1′-(6-Amino-5-fluoropyrimidin-4-yl)-3-(3,5-dichlorophenylamino)-5′-fluoro-1,3′-bipiperidin-2-one]	< 0.1	–
C[C@H]1CCN(c2ncnc(N)c2F)C[C@@H]1N1CCCC(Nc2cc(Cl)cc(Cl)c2)C1=O (stereo partly drawn) [compound 281, trans-1′-(6-Amino-5-fluoropyrimidin-4-yl)-3-(3,5-dichlorophenylamino)-4′-methyl-1,3′-bipiperidin-2-one]	< 0.1	–
C[C@H]1CCN(c2ncnc(N)c2F)C[C@@H]1N1CCCC(Nc2cccc(Cl)c2)C1=O (stereo partly drawn) [compound 282, trans-1′-(6-Amino-5-fluoropyrimidin-4-yl)-3-(3-chlorophenylamino)-4′-methyl-1,3′-bipiperidin-2-one]	< 0.1	–
Nc1ncnc(N2C[C@@H](O)C[C@@H](N3CCCC(Nc4cc(Cl)cc(Cl)c4)C3=O)C2)c1F (stereo partly drawn) [compound 283, (3′R,5′S)-1′-(6-Amino-5-fluoropyrimidin-4-yl)-3-(3,5-dichlorophenylamino)-5′-hydroxy-1,3′-bipiperidin-2-one]	< 0.1	–
Nc1ncnc(N2C[C@@H](O)C[C@@H](N3CCCC(Nc4cc(F)cc(Cl)c4)C3=O)C2)c1F (stereo partly drawn) [compound 284, (3′R, 5′S)-1′-(6-Amino-5-fluoropyrimidin-4-yl)-3-(3-chloro-5-fluorophenylamino)-5′-hydroxy-1,3′-bipiperidin-2-one]	–	0.1 to 0.999
N#Cc1cnc2[nH]ccc2c1N1CCC[C@@H](N2CCCC(Nc3cc(F)cc(Cl)c3)C2=O)C1 (stereo partly drawn) [compound 285, 4-((3′R)-3-(3-Chloro-5-fluorophenylamino)-2-oxo-1,3′-bipiperidin-1′-yl)-1H-pyrrolo[2,3-b]pyridine-5-carbonitrile]	< 0.1	–
CNc1ncnc(N2CCC[C@@H](N3CCCC(Nc4cc(F)cc(Cl)c4)C3=O)C2)c1F (stereo partly drawn) [compound 286, (3′R)-3-(3-Chloro-5-fluorophenylamino)-1′-(5-fluoro-6-(methylamino)pyrimidin-4-yl)-1,3′-bipiperidin-2-one]	–	1 to 10
CCNc1ncnc(N2CCC[C@@H](N3CCCC(Nc4cc(F)cc(Cl)c4)C3=O)C2)c1F (stereo partly drawn) [compound 287, (3′R)-3-(3-Chloro-5-fluorophenylamino)-1′-(6-(ethylamino)-5-fluoropyrimidin-4-yl)-1,3′-bipiperidin-2-one]	–	1 to 10
CCCNc1ncnc(N2CCC[C@@H](N3CCCC(Nc4cc(F)cc(Cl)c4)C3=O)C2)c1F (stereo partly drawn) [compound 288, (3′R)-3-(3-Chloro-5-fluorophenylamino)-1′-(5-fluoro-6-(propylamino)pyrimidin-4-yl)-1,3′-bipiperidin-2-one]	–	1 to 10
Nc1ncnc(N2CCC[C@@H](N3CCCC(Nc4cc(F)cc(Cl)c4)C3=O)C2)c1Cl (stereo partly drawn) [compound 289, (3′R)-1′-(6-Amino-5-chloropyrimidin-4-yl)-3-(3-chloro-5-fluorophenylamino)-1,3′-bipiperidin-2-one]	–	0.1 to 0.999
CC(C)(C)NC1CCCN([C@@H]2CCCN(c3ncnc(N)c3F)C2)C1=O (stereo partly drawn) [compound 290, (3′R)-1′-(6-Amino-5-fluoropyrimidin-4-yl)-3-(tert-butylamino)-1,3′-bipiperidin-2-one]	> 10	–
Nc1ncnc(N2CCC[C@@H](N3CCCC(NCc4ccccc4)C3=O)C2)c1F (stereo partly drawn) [compound 291, (3′R)-1′-(6-Amino-5-fluoropyrimidin-4-yl)-3-(benzylamino)-1,3′-bipiperidin-2-one]	> 10	–
CC(C)(C)CNC1CCCN([C@@H]2CCCN(c3ncnc(N)c3F)C2)C1=O (stereo partly drawn) [compound 292, (3′R)-1′-(6-Amino-5-fluoropyrimidin-4-yl)-3-(neopentylamino)-1,3′-bipiperidin-2-one]	> 10	–
